Source: ChEMBL document CHEMBL4507265 (2021)

Legend:
[1] = target: Activin receptor type-2A (Homo sapiens) (UniProt P27037); details: Compound concentration 1000.0 nM
[2] = target: Hormonally up-regulated neu tumor-associated kinase (Homo sapiens) (UniProt P57058); details: Compound concentration 1000.0 nM
[3] = target: cAMP-dependent protein kinase catalytic subunit alpha (Homo sapiens) (UniProt P17612); details: Compound concentration 1000.0 nM
[4] = target: Myotonin-protein kinase (Homo sapiens) (UniProt Q09013); details: Compound concentration 1000.0 nM
[5] = system: Tyrosine-protein kinase ABL1 (Homo sapiens), P00519 [F317L]; details: Compound concentration 1000.0 nM
[6] = target: Serine/threonine-protein kinase Nek2 (Homo sapiens) (UniProt P51955); details: Compound concentration 1000.0 nM
[7] = target: Dual specificity protein kinase CLK4 (Homo sapiens) (UniProt Q9HAZ1); details: Compound concentration 1000.0 nM
Sequence of Dual specificity protein kinase CLK4 (Homo sapiens) (Q9HAZ1 whole entry, looked up): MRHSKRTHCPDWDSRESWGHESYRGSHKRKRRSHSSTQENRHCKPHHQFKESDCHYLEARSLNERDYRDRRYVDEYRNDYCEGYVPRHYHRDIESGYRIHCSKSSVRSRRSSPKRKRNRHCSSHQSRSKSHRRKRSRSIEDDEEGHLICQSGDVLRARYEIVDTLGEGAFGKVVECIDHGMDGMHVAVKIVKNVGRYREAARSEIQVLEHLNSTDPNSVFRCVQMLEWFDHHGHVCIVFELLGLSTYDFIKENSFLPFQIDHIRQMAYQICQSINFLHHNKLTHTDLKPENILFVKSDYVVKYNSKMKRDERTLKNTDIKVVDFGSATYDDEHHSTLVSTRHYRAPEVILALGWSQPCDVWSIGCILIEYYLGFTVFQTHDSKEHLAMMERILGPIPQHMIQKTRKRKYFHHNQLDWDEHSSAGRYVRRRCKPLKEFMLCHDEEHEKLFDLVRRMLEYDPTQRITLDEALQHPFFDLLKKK

[8] = target: Dual specificity mitogen-activated protein kinase kinase 5 (Homo sapiens) (UniProt Q13163); details: Compound concentration 1000.0 nM
[9] = target: Alpha-1B adrenergic receptor (Homo sapiens) (UniProt P35368); details: Compound concentration 10.0 uM
Sequence of Alpha-1B adrenergic receptor (Homo sapiens) (P35368 whole entry, canonical isoform): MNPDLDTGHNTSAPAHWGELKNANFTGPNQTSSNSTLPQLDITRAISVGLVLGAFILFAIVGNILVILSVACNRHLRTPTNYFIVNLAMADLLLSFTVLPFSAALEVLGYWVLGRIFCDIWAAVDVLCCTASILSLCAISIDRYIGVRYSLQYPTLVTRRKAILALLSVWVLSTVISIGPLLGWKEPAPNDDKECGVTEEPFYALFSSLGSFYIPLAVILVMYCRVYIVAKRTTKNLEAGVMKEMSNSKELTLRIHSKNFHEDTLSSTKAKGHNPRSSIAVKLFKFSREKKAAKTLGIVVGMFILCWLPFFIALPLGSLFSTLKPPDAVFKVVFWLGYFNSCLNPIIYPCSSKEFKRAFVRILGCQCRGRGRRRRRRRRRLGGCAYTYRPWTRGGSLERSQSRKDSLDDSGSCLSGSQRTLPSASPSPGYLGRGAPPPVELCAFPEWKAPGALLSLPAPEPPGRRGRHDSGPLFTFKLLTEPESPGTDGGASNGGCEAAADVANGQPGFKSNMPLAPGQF

[10] = target: Phosphatidylinositol 4,5-bisphosphate 3-kinase catalytic subunit beta isoform (Homo sapiens) (UniProt P42338); details: Compound concentration 1000.0 nM
[11] = target: Insulin receptor-related protein (Homo sapiens) (UniProt P14616); details: Compound concentration 1000.0 nM
[12] = target: Serine/threonine-protein kinase ULK2 (Homo sapiens) (UniProt Q8IYT8); details: Compound concentration 1000.0 nM
Sequence of Serine/threonine-protein kinase ULK2 (Homo sapiens) (Q8IYT8 whole entry): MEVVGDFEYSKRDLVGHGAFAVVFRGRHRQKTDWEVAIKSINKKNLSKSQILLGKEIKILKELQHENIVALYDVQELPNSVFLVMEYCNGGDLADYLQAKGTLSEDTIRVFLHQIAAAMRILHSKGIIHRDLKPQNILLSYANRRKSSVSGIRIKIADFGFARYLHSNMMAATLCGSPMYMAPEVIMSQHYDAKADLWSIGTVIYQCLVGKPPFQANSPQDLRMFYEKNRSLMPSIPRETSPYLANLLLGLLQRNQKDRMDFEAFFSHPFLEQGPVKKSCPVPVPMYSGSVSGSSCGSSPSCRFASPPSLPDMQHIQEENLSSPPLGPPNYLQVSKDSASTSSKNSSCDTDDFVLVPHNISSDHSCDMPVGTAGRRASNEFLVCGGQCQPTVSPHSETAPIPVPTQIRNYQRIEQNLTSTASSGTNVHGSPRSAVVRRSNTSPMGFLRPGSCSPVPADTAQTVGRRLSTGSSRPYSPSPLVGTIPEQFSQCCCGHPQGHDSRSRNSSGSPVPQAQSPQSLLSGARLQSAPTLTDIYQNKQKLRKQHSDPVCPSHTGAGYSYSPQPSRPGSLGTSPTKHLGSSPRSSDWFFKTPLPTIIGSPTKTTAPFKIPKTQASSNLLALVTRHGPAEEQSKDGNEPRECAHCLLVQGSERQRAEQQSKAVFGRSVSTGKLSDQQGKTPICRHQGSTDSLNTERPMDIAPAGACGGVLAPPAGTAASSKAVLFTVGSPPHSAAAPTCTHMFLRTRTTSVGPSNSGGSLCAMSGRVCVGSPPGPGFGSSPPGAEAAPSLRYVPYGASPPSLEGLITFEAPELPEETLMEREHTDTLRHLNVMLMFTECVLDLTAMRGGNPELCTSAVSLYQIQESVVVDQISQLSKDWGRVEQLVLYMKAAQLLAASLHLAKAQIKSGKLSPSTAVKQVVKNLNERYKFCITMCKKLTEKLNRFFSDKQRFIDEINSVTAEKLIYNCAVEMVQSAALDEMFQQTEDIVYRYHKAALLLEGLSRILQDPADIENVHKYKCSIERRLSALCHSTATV

[13] = system: Fibroblast growth factor receptor 3 (Homo sapiens), P22607 [G697C]; details: Compound concentration 1000.0 nM
Sequence of Fibroblast growth factor receptor 3 (Homo sapiens), P22607 [G697C] (P22607 whole entry G697C): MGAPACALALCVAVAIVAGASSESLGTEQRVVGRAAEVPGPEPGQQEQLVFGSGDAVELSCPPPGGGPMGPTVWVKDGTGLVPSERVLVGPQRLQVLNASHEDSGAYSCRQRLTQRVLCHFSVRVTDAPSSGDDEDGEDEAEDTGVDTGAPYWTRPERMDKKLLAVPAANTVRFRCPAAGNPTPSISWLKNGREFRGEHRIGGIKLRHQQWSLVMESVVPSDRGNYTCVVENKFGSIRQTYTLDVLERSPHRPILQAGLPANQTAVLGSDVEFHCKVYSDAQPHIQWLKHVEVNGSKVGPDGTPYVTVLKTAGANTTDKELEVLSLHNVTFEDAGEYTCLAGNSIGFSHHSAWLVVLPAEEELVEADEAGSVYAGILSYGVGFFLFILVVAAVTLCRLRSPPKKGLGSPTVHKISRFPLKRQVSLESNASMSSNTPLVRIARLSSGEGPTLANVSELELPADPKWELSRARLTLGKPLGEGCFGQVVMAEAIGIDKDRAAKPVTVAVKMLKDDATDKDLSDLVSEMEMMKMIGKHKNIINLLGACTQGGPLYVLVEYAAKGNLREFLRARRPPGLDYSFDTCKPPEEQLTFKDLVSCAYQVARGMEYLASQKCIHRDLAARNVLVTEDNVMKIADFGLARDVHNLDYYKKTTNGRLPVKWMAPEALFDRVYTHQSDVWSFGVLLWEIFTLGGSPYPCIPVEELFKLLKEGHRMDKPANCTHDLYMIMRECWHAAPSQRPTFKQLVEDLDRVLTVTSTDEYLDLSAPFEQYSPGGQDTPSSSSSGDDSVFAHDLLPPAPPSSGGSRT

[14] = target: Non-receptor tyrosine-protein kinase TNK1 (Homo sapiens) (UniProt Q13470); details: Compound concentration 1000.0 nM
[15] = target: Mitogen-activated protein kinase kinase kinase 11 (Homo sapiens) (UniProt Q16584); details: Compound concentration 1000.0 nM
[16] = target: Serine/threonine-protein kinase PAK 1 (Homo sapiens) (UniProt Q13153); details: Compound concentration 1000.0 nM
[17] = target: Glycogen synthase kinase-3 beta (Homo sapiens) (UniProt P49841); details: Compound concentration 1000.0 nM
[18] = target: Serine/threonine-protein kinase MARK2 (Homo sapiens) (UniProt Q7KZI7); details: Compound concentration 1000.0 nM
[19] = target: T1, Alpha-2A adrenergic receptor (Homo sapiens) (UniProt P08913); details: Compound concentration 10.0 uM
T1 sequence (whole entry): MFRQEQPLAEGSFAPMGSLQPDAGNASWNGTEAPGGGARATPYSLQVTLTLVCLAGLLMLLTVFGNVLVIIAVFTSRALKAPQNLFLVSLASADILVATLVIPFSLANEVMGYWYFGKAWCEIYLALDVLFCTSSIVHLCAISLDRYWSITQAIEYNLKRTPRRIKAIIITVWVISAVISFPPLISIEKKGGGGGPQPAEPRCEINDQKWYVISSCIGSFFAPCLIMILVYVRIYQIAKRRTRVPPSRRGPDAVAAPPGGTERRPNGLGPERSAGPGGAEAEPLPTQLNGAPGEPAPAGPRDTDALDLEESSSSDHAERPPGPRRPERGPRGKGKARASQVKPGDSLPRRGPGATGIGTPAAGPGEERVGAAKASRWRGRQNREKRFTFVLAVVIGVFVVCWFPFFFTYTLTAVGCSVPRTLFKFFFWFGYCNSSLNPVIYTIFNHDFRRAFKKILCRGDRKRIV

[20] = target: RAC-alpha serine/threonine-protein kinase (Homo sapiens) (UniProt P31749); details: Compound concentration 1000.0 nM
[21] = target: Membrane-associated tyrosine- and threonine-specific cdc2-inhibitory kinase (Homo sapiens) (UniProt Q99640); details: Compound concentration 1000.0 nM
[22] = target: Serine/threonine-protein kinase/endoribonuclease IRE1 (Homo sapiens) (UniProt O75460); details: Compound concentration 1000.0 nM
[23] = target: Fibroblast growth factor receptor 1 (Homo sapiens) (UniProt P11362); details: Compound concentration 1000.0 nM
[24] = target: 5'-AMP-activated protein kinase catalytic subunit alpha-2 (Homo sapiens) (UniProt P54646); details: Compound concentration 1000.0 nM
Sequence of 5'-AMP-activated protein kinase catalytic subunit alpha-2 (Homo sapiens) (P54646 whole entry, looked up): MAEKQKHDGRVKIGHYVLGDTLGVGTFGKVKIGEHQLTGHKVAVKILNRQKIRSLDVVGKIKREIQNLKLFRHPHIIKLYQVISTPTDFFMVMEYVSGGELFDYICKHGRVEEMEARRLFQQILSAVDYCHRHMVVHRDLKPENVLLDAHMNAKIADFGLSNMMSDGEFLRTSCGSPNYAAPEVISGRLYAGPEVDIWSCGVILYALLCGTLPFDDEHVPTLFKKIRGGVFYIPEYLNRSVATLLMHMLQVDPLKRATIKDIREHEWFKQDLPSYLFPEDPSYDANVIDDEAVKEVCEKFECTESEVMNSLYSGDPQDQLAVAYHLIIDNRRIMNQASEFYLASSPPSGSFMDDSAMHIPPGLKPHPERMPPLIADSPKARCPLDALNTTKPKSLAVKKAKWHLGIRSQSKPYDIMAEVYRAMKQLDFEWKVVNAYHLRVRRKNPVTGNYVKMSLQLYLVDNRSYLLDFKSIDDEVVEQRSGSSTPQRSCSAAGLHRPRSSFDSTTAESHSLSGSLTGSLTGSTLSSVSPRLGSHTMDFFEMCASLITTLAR

[25] = system: Mast/stem cell growth factor receptor Kit (Homo sapiens), P10721 [A829P]; details: Compound concentration 1000.0 nM
[26] = system: Mast/stem cell growth factor receptor Kit (Homo sapiens), P10721 [V559D]; details: Compound concentration 1000.0 nM
[27] = target: Mitogen-activated protein kinase kinase kinase 6 (Homo sapiens) (UniProt O95382); details: Compound concentration 1000.0 nM
[28] = target: Ribosomal protein S6 kinase alpha-3 (Homo sapiens) (UniProt P51812); details: Compound concentration 1000.0 nM
[29] = target: Cyclin-dependent kinase 11B (Homo sapiens) (UniProt P21127); details: Compound concentration 1000.0 nM
[30] = target: Cyclin-dependent kinase 4 (Homo sapiens) (UniProt P11802); details: Compound concentration 1000.0 nM
[31] = target: Serine/threonine-protein kinase Sgk3 (Homo sapiens) (UniProt Q96BR1); details: Compound concentration 1000.0 nM
[32] = target: MAP kinase-activated protein kinase 2 (Homo sapiens) (UniProt P49137); details: Compound concentration 1000.0 nM
[33] = target: Tyrosine-protein kinase Srms (Homo sapiens) (UniProt Q9H3Y6); details: Compound concentration 1000.0 nM
[34] = target: Inhibitor of nuclear factor kappa-B kinase subunit alpha (Homo sapiens) (UniProt O15111); details: Compound concentration 1000.0 nM
[35] = target: Myosin light chain kinase (Homo sapiens) (UniProt Q32MK0); details: Compound concentration 1000.0 nM
Sequence of Myosin light chain kinase (Homo sapiens) (Q32MK0 whole entry): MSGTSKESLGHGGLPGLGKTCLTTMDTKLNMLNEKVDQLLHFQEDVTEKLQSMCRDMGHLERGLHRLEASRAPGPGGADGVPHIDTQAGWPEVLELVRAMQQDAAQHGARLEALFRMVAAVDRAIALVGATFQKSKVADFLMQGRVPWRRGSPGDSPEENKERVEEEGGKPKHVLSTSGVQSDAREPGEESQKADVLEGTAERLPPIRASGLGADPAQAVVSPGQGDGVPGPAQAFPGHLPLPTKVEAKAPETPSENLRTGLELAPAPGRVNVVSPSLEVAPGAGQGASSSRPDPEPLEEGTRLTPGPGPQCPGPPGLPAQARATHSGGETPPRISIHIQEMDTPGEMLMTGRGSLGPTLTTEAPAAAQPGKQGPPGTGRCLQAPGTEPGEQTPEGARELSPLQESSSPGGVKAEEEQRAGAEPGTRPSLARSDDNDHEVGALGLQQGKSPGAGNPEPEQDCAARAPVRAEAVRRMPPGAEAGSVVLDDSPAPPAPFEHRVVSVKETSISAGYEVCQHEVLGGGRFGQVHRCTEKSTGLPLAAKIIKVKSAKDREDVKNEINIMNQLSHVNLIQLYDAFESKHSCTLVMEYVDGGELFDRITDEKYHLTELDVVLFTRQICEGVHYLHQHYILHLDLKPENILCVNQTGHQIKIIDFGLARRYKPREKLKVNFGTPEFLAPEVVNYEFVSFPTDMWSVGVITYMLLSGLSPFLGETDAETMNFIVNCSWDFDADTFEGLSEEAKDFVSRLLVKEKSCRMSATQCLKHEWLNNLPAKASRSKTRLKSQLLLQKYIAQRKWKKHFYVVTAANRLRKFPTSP

[36] = target: Tyrosine-protein kinase JAK2 (Homo sapiens) (UniProt O60674); details: Compound concentration 1000.0 nM
[37] = system: Tyrosine-protein kinase ABL1 (Homo sapiens), P00519 [M351T]; details: Compound concentration 1000.0 nM
[38] = target: Receptor tyrosine-protein kinase erbB-2 (Homo sapiens) (UniProt P04626); details: Compound concentration 1000.0 nM
[39] = target: LIM domain kinase 1 (Homo sapiens) (UniProt P53667); details: Compound concentration 1000.0 nM

Sequence of Hormonally up-regulated neu tumor-associated kinase (Homo sapiens) (P57058 whole entry): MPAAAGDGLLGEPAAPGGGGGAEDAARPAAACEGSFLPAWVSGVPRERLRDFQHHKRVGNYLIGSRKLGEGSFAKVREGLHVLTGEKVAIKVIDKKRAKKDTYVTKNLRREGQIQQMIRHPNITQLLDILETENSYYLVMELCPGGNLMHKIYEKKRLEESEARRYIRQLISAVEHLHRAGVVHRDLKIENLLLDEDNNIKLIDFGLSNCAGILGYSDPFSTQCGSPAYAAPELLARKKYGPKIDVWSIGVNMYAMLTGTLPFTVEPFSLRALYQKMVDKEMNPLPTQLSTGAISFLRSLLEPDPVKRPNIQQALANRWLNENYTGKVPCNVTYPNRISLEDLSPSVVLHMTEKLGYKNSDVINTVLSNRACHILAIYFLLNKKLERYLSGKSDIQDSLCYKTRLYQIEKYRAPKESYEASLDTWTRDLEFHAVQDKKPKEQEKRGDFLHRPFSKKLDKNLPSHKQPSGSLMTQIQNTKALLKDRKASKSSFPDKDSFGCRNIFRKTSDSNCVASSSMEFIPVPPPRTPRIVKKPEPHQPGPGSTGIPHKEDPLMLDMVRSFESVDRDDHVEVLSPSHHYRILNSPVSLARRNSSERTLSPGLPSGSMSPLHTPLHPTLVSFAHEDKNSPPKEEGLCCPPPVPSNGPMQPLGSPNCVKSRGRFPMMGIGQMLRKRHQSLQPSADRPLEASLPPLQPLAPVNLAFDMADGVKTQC

SMILES: NS(=O)(=O)c1cc(NC(=O)C2(c3ccccc3Cl)CC2)ccc1Oc1cccc(Cl)c1 [BAY-207]
- residual activity [1]: 96%
- residual activity [2]: 75%
- residual activity [3]: 94%
- residual activity [4]: 79%
- residual activity [5]: 88%
- residual activity [6]: 86%
- residual activity [7]: 100%
- residual activity [8]: 94%
- inhibition [9]: -8.97%
- residual activity [10]: 100%
- residual activity [11]: 95%
- residual activity [12]: 100%
- residual activity [13]: 100%
- residual activity [14]: 100%
- residual activity [15]: 79%
- residual activity [16]: 79%
- residual activity [17]: 100%
- residual activity [18]: 100%
- inhibition [19]: 40.8%
- residual activity [20]: 78%
- residual activity [21]: 70%
- residual activity [22]: 61%
- residual activity [23]: 100%
- residual activity [24]: 87%
- residual activity [25]: 69%
- residual activity [26]: 79%
- residual activity [27]: 100%
- residual activity [28]: 92%
- residual activity [29]: 83%
- residual activity [30]: 70%
- residual activity [31]: 90%
- residual activity [32]: 90%
- residual activity [33]: 77%
- residual activity [34]: 100%
- residual activity [35]: 89%
- residual activity [36]: 100%
- residual activity [37]: 70%
- residual activity [38]: 49%
- residual activity [39]: 100%

SMILES: NS(=O)(=O)c1cc(NC(=O)Cc2ccccc2)ccc1Oc1cccc(Cl)c1 [BAY-1797]
- residual activity [1]: 95%
- residual activity [2]: 84%
- residual activity [3]: 94%
- residual activity [4]: 100%
- residual activity [5]: 57%
- residual activity [6]: 89%
- residual activity [7]: 83%
- residual activity [8]: 88%
- inhibition [9]: -0.38%
- residual activity [10]: 84%
- residual activity [11]: 100%
- residual activity [12]: 52%
- residual activity [13]: 100%
- residual activity [14]: 74%
- residual activity [15]: 78%
- residual activity [16]: 88%
- residual activity [17]: 80%
- residual activity [18]: 59%
- inhibition [19]: 6.31%
- residual activity [20]: 100%
- residual activity [21]: 96%
- residual activity [22]: 73%
- residual activity [23]: 100%
- residual activity [24]: 82%
- residual activity [25]: 74%
- residual activity [26]: 81%
- residual activity [27]: 72%
- residual activity [28]: 72%
- residual activity [29]: 71%
- residual activity [30]: 71%
- residual activity [31]: 83%
- residual activity [32]: 100%
- residual activity [33]: 78%
- residual activity [34]: 63%
- residual activity [35]: 89%
- residual activity [36]: 73%
- residual activity [37]: 78%
- residual activity [38]: 87%
- residual activity [39]: 87%
